Data published in US20040157280A1, “Antibody mediated ozone generation” (priority 2001, published 2004).
“Also recorded” adds a separate entry of the source.

Legend:
[1] = system: E. coli; assay: Bactericidal assay, E. coli (strain not singled out); assay type: cell-based; conditions: for bactericidal activity (in words): HPIX 40 μM, white light 1 h, 4° C.
Description: In a typical experiment, a culture of E. coli (in log phase growth, OD600=0.2-0.3) was repeatedly pelleted (3×3,500 rpm) and resuspended in PBS (pH 7.4). The PBS suspended cells were then added to glass vials and cooled to 4° C. Hematoporphyrin IX (40 μM) and antibody (20 μM) were added and the vials were either placed on a light box (visible light, 2.8 mW cm^−2) or in the dark at 4° C. and incubated for 1 h. Viability was determined by recovery of colony forming units (CFUs) on agar plates. Each experiment was performed at least in duplicate.
In a typical experiment, a culture of E. coli (in log phase growth, OD600=0.2-0.3) was repeatedly washed in PBS by pelleting (3×3,500 rpm) the cells and resuspending them in PBS (pH 7.4). The PBS suspended cells were then added to glass vials and cooled to 4° C. Hematoporphyrin IX (40 μM) and antibody (20 μM) were added and the vials were either placed on a light box (visible light, 2.8 mW cm^−2) or in the dark at 4° C. and incubated for 1 h. Viability was determined by recovery of colony forming units (CFUs) on agar plates. Each experiment was performed at least in duplicate.

[2] = system: human neutrophils (PMNs); assay: Oxidation of indigo carmine 1 by activated human neutrophils; assay type: cell-based; conditions: indigo carmine 30 μM, PMNs 1.5×10^7 cell/mL, phorbol myristate 1 μg/mL, 37° C.
Description: FIG. 20A illustrates the time course of oxidation of indigo carmine 1 (30 μM) (Δ) and formation of 2 (▪) by human neutrophils (PMNs, 1.5×10^7 cell/mL) activated with phorbol myristate (1 μg/mL) in PBS (pH 7.4) at 37° C. No oxidation of indigo carmine 1 occurs with PMNs that are not activated (data not shown). Neutrophils were prepared as previously described. Hypochlorous acid (HOCl) is an oxidant known to be produced by neutrophils.
Human neutrophils were prepared as described by M. Markert, P. C. Andrews, and B. M. Babior Methods Enzymol. 105, 358 (1984). Following activation with phorbol myristate (1 μg/mL), the neutrophils (1.5×10^7 cells/mL) produced an oxidant species that oxidatively cleaves indigo carmine 1 to isatin sulfonic acid 2 (FIG. 19 and FIG. 20B). Hypochlorous acid (HOCI) is an oxidant that is known to be produced by neutrophils.

[3] = Long-term near-UV photo-production of H2O2 with catalase cycles; assay type: biochemical
Description: FIG. 8A illustrates the production of H2O2 by immunoglobulins and non-immunoglobulin proteins. Assays were performed by near-UV irradiation (312 nm, 800 μW cm^−2) of individual antibody/protein samples (100 μL, 6.7 μM) in phosphate-buffered saline (PBS) [10 mM sodium phosphate, 150 mM NaCl (pH 7.4)] in a sealed glass vial on a transilluminator (Fischer Biotech) under ambient aerobic conditions at 20EC. Aliquots (10 μL) were removed at timed intervals throughout the assay. H2O2 concentration was determined by the amplex red method. […]
FIG. 8B illustrates the long-term production of H2O2 by sheep poly-IgG (6.7 μM, 200 μL). […] H2O2 concentration was measured as described in FIG. 8A. […]
FIG. 8E illustrates the long-term inhibition of antibody photo-production of H2O2 by H2O2 and complete re-establishment of activity after removal of H2O2. […] H2O2 fo rmation throughout the assay was measured by the amplex red assay. […]
FIG. 11B provides the effect of chloride ion on antibody-mediated photo-production of H2O2. […] Aliquots (10 μL) were removed throughout the assay and the H2O2 concentration determined by the amplex red assay. […]

[4] = Hydrogen peroxide production by UV-irradiated antibody/protein (Amplex Red assay); assay type: biochemical; conditions: UV irradiation in PBS
Description: Antibody/Protein Irradiation. Unless otherwise stated, the assay solution (100 μl, 6.7 μM protein in PBS, pH 7.4) was added to a glass vial, sealed with a screw-cap, and irradiated with either UV (312 nm, […] Fischer-Biotech transilluminator) or visible light.
Quantitative Assay for Hydrogen Peroxide. An aliquot (20 μl) from the protein solution was removed and added into a well of a 96-well microtiter plate (Costar) containing reaction buffer (80 μl). Working solution (100 μl/400 μM Amplex Red reagent ½ units/ml horseradish peroxidase) was then added, and the plate was incubated in the dark for 30 min. The fluorescence of the well components was then measured using a CytoFluor Multiwell Plate Reader (Series 4000, PerSeptive Biosystems, Framingham, Mass.; Ex/Em: 530/580 nm). The hydrogen peroxide concentration was determined using a standard curve. All experiments were run in duplicate, and the rate is quoted as the mean of at least two measurements.
Denaturation. IgG 19G12 (100 μl, 6.7 μM) was heated to 100EC in an Eppendorf tube for 2 min. The resultant solution was transferred to a glass, screw-cap vial and irradiated with UV light for 30 min. The concentration of H2O2 was determined after 30 min.

Molecule: CC1=C(CCC(=O)O)c2cc3[nH]c(cc4nc(cc5[nH]c(cc1n2)c(C)c5C(C)O)C(C)=C4C(C)O)c(C)c3CCC(=O)O (stereo not drawn) [hematoporphyrin IX]
- bactericidal activity (in words) [1]: negligible bactericidal activity

Molecule: O=C1/C(=C2\Nc3ccc(S(=O)(=O)O)cc3C2=O)Nc2ccc(S(=O)(=O)O)cc21 [indigo carmine 1, indigo carmine]
- isatin sulfonic acid 2 formed [2]: 25.1 ± 0.3 µM

Molecule: N[C@@H](Cc1c[nH]c2ccccc12)C(=O)O [tryptophan]
- production of H2O2 during near-UV irradiation ([3]; tryptophan 20 μM): ca. 0.5 mole equivalents

Molecule: bovine serum albumin: bovine serum albumin
- bactericidal activity (in words) [1]: no bacterial killing

Molecule: catalase
- protection against the bactericidal activity of non-specific antibodies ([1]; catalase 13 mU/mL): complete protection; also recorded: completely attenuated the bactericidal activity

Molecule: chick ovalbumin: chick-egg ovalbumin from Sigma
- ability to reduce ^1O2 / generate H2O2 (in words) [4]: one of the most efficient proteins at reducing ^1O2

Molecule: superoxide dismutase: enzyme obtained from Sigma
- ability to reduce ^1O2 / generate H2O2 (in words) [4]: the same as irradiation of PBS alone; also recorded: do not reduce ^1O2

Molecule: β-galactosidase: enzyme from Sigma; most efficient non-immunoglobulin protein at H2O2 photo-production
- H2O2 generated by photo-production ([3]; near-UV, from its 39 Trp residues): 5.9 mol eq.

B1: RNase A: ribonuclease from Amersham Pharmacia (protein, UniProt P61823 27-150, looked up)
Ribonuclease pancreatic: KETAAAKFERQHMDSSTSAASSSNYCNQMMKSRNLTKDRCKPVNTFVHESLADVQAVCSQKNVACKNGQTNCYQSYSTMSITDCRETGSSKYPNCAYKTTQANKHIIVACEGNPYVPVHFDASV
- ability to reduce ^1O2 / generate H2O2 (in words) [4]: do not reduce ^1O2
